Experiments:
[1] = Metabolic stability in Sprague-Dawley rat liver microsomes assessed as deuteration effect measured upto 120 mins by LC-MS/MS analysis; format: ADME, Microsome; details: 2 h
[2] = Metabolic stability of the compound assessed as recombinant human MAO-mediated oxidative metabolism by measuring compound remaining measured upto 120 mins by LC-MS/MS analysis; format: ADME; details: 2 h
[3] = target: T1, 5-hydroxytryptamine receptor 2A (Homo sapiens, UniProt P28223); experiment: Displacement of [3H]LSD from human 5-HT2A receptor expressed in HEK293 cell membrane incubated for 90 mins by microbeta liquid scintillation counting method; format: cell membranes
Mus musculus [4] = experiment: Psychedelic effect in C57BL/6J mouse assessed as number of head-twitch responses by visual observation at 3 mg/kg, po measured for 3 mins at 160 to 170 min; format: functional; details: 0.05 h
[5] = target: T2, 5-hydroxytryptamine receptor 2C (Homo sapiens, UniProt P28335); experiment: Displacement of [3H]LSD from human 5-HT2C receptor expressed in HEK293 cell membrane incubated for 90 mins by microbeta liquid scintillation counting method; format: cell membranes
T2 sequence (P28335 whole entry): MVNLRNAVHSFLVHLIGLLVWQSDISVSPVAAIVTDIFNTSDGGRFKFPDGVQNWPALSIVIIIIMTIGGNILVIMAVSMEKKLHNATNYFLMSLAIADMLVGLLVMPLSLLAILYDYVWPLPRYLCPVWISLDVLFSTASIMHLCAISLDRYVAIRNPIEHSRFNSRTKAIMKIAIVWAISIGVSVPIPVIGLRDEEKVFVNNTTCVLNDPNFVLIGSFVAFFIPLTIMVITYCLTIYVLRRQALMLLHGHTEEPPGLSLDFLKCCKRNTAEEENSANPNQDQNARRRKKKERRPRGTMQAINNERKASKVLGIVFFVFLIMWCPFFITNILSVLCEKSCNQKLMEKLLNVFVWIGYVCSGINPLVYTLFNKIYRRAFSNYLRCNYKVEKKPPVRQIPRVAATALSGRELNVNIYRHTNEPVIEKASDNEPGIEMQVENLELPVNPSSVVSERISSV

[6] = target: 5-hydroxytryptamine receptor 2B (Homo sapiens, UniProt P41595); experiment: Displacement of [3H]LSD from human 5-HT2B receptor expressed in HEK293 cell membrane incubated for 90 mins by microbeta liquid scintillation counting method; format: cell membranes
Mus musculus [7] = experiment: Psychedelic effect in C57BL/6J mouse assessed as number of head-twitch responses by visual observation at 3 mg/kg, po measured for 3 mins at 5 to 25 min; format: functional; details: 0.05 h
[8] = Chemical stability of the compound in buffer solution at pH 1 to 6.8 measured for 5 days; format: physicochemical; details: pH 1, 120 h, time 5 day
[9] = Chemical stability of the compound in water measured for 5 days; format: physicochemical; details: buffer, 120 h; time 5 day
[10] = target: T1, 5-hydroxytryptamine receptor 2A; experiment: Agonist activity at human 5-HT2A receptor expressed in HEK293 cells assessed as IP2 production measured after 30 mins incubation by HTRF assay; format: functional, cell-based
[11] = Lipophilicity, logP of the compound; format: physicochemical; details: octanol/water
[12] = target: T1, 5-hydroxytryptamine receptor 2A; experiment: Agonist activity at human 5-HT2A receptor expressed in HEK293 cells assessed as maximal IP2 production measured after 30 mins incubation by HTRF assay relative to control; format: functional, cell-based; details: filed as agonist

5-hydroxytryptamine receptor 2B, sequence (P41595 whole entry): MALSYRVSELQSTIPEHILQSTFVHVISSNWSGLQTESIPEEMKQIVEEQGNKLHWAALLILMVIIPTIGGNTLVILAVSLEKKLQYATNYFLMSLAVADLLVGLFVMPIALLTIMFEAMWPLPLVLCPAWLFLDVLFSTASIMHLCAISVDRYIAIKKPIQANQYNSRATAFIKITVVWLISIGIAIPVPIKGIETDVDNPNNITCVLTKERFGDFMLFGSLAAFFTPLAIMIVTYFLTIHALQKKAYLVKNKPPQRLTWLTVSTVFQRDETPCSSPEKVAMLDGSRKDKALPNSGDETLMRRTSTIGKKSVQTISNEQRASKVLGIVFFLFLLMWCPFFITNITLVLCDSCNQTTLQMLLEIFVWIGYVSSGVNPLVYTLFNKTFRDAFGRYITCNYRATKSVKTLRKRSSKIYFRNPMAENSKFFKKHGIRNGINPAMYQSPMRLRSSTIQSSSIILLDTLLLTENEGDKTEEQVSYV
T1 sequence (P28223 whole entry): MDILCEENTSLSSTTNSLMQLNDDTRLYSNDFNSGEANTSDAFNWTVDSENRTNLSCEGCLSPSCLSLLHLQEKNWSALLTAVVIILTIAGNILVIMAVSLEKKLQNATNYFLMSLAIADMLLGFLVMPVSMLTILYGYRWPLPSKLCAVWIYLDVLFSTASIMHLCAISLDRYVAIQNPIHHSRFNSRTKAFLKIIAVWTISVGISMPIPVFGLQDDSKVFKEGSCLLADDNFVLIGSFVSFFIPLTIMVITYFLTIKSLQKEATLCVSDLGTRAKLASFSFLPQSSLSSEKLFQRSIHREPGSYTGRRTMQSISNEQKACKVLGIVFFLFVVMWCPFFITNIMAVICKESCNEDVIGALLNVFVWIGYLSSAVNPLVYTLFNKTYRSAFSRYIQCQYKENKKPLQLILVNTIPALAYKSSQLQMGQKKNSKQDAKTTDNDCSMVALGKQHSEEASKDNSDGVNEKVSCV

Cl.[2H]C([2H])([2H])Oc1cc(SC)c(OC([2H])([2H])[2H])cc1CCN
Stability [1]: Stable
Stability [2]: Stable

COc1cc(SCCCCF)c(OC)cc1CCN
Ki ([3]; read-out: Ki): 0.047 µM

COc1cc(SSC(C)(C)C)c(OC)cc1CCN.Cl
Ki ([3]; read-out: Ki): 0.059 µM
Activity (Mus musculus [4]): 4.8
Ki [5]: 0.026 µM
Ki [6]: 0.01 µM
Activity (Mus musculus [7]): 0.6

COc1cc(OCCC(F)(F)F)c(OC)cc1CCN
Ki ([3]; read-out: Ki): 0.477 µM

Cl.[2H]C([2H])(N)Cc1cc(OC)c(SC)cc1OC
Stability [1]: Stable
Stability [2]: Stable

Cl.[2H]C([2H])([2H])Oc1cc(C(F)(F)F)c(OC([2H])([2H])[2H])cc1CCN
Stability [1]: Stable
Stability [2]: Stable

Cl.[2H]C([2H])([2H])C(c1cc(OC)c(CCN)cc1OC)(C([2H])([2H])[2H])C([2H])([2H])[2H]
Stability [1]: Stable
Stability [2]: Stable

Cl.[2H]C([2H])([2H])Oc1cc(C2CCCC2)c(OC([2H])([2H])[2H])cc1CCN
Stability [1]: Stable
Stability [2]: Stable

COc1cc(SC)c(OC)cc1C[C@@H](C)N.Cl
Stability [1]: Stable
Stability [2]: Stable

COc1cc(SC(F)(F)F)c(OC)cc1CCN.Cl
Activity (Mus musculus [4]): 30
Stability [8]: Stable
Activity (Mus musculus [7]): 21
Stability [9]: Stable

COc1cc(C2CCCC2)c(OC)cc1CCN
Ki ([3]; read-out: Ki): 0.134 µM

COc1cc(SCCC(F)(F)F)c(OC)cc1CCN.Cl
Ki ([3]; read-out: Ki): 0.01 µM
Activity (Mus musculus [4]): 6.1
Ki [5]: 0.011 µM
Ki [6]: 0.0055 µM
Activity (Mus musculus [7]): 3.3

COc1cc(S(=O)(=O)C(C)(C)C)c(OC)cc1CCN
EC50 ([10]; read-out: EC50): 0.53 µM

COc1cc(P(C)(C)=O)c(OC)cc1CCN.Cl
logP [11]: -1.67
EC50 ([10]; hek293): Not Active

COc1cc([S+]([O-])C(F)(F)F)c(OC)cc1CCN.Cl (centres undefined)
Ki ([3]; read-out: Ki): 0.019 µM
Activity (Mus musculus [4]): 18
Ki [5]: 0.021 µM
Ki [6]: 0.0065 µM
Activity (Mus musculus [7]): 17

COc1cc(C[C@H](C)N)c(O)cc1SC.Cl
Stability [1]: Stable
Stability [2]: Stable

COc1cc([S+]([O-])C(F)F)c(OC)cc1CCN.Cl (centres undefined)
Ki ([3]; read-out: Ki): 0.027 µM
Activity (Mus musculus [4]): 4
Ki [5]: 0.082 µM
Ki [6]: 0.026 µM
Activity (Mus musculus [7]): 3

Cl.[2H]C([2H])([2H])Oc1cc(SC)c(OC([2H])([2H])[2H])cc1C[C@H](C)N
Stability [1]: Stable
Stability [2]: Stable

COc1cc(S(=O)(=O)C(F)F)c(OC)cc1CCN.Cl
Ki ([3]; read-out: Ki): 0.011 µM
Activity (Mus musculus [4]): 1.7
Ki [5]: 0.083 µM
Ki [6]: 0.02 µM
Activity (Mus musculus [7]): 5

COc1cc(OCCCF)c(OC)cc1CCN
Ki ([3]; read-out: Ki): 1.64 µM
Ki ([3]; read-out: pKi (converted)): 1.7 µM

COc1cc(SCC#N)c(OC)cc1CCN
Emax [12]: 77%
Ki ([3]; read-out: Ki): 0.036 µM
EC50 ([10]; read-out: EC50): 0.0061 µM

COc1cc(CCN)cc(OC)c1SC(F)(F)F
Emax [12]: 96%
Ki ([3]; read-out: Ki): 0.045 µM
EC50 ([10]; read-out: EC50): 0.041 µM
